In patent publication US20250320501A1, “PALMITOYLATION OF THE ALTERNATIVE AMINO TERMINUS OF THE BTK-C ISOFORM CONTROLS SUBCELLULAR DISTRIBUTION AND SIGNALING” (The Research Foundation for the State University of New York, priority 2022, published 2025):

Assays:
BTK-C [1] = molecular target: T1, BTK-C (Homo sapiens, UniProt Q06187, M35A); experiment: Acyl incorporation assay (click chemistry after Flag immunoprecipitation), BTK-C; assay type: cell-based; details: HEK293 cells co-expressing zDHHC5, 100 μM analogue for 4 h
T1 construct: cells expressing Flag-tagged, full-length versions of BTK-A and BTK-C; expressed in transfected cells; host or cells: HEK293
Method: (§1) FIG. 2A-D presents the BTK-C isoform palmitoylated: FIG. 2A presents a diagram of BTK isoform C-terminal Flag-tagged constructs: FIG. 2B presents an expression of Flag-tagged constructs in MDA-MB-231 cells; FIG. 2C presents detection scheme for acylated BTK isoforms. Cells were incubated with 17-ODYA. Flag immunoprecipitates were reacted with azide-activated biotinylation reagent and detected through reaction with streptavidin-linked horseradish peroxidase; and FIG. 2D presents HEK293 cells were transfected with 1 μg of BTK-A, BTK-C, or BTK-C C13A, C16A and 2 μg of a plasmid expressing zDHHC5. 24 h after transfection cells were incubated for 4 h with 100 μM palmitic acid alkyne (17-ODYA). Cell lysate supernatants were immunoprecipitated with Anti-Flag M2 affinity gel (Sigma) at 4° C. overnight, subjected to click chemistry with 20 μM biotin picolyl azide for 30 m at room temperature before electrophoresis and blotting.
Reporter construction and viral transgenesis: GFP fusion constructs were generated using a BTK pleckstrin homology domain fusion protein vector, PH-Btk-GFP (Addgene Plasmid #51463). BTK constructs (BTK-A R28C; BTK-C; BTK-C R28C; BTK-C C13A, C16A; BTK-C C13A,C16A,R28C) were generated in this plasmid using QuikChange site directed mutagenesis. The exon 1C sequence (FIG. 1B) was subcloned from the original cDNA isolate. To prevent internal translational initiation at the BTK-A ATG, this codon was changed to Ala in all BTK-C constructs. Production of either the 77 kDa BTK-A isoform or the 65 kDa p65BTK was not observed for BTK-C constructs. GFP reporters were subcloned into MARXIVpuro REV plasmid (22). Full-length mutant proteins were produced by subcloning into a BTK gene with a C-terminal Flag tag expressed from a MARXIVpuro REV vector. DNA sequence was confirmed by DNA sequence analysis for all constructs. ϕNX-Ampho cells were transfected with Flag-tagged versions of BTK as described. Empty vector was used as a control. A lentivirus-born shRNA targeting the chromosomal BTK 3′UTR TRCN0000000358 (Sigma-Aldrich, Saint Louis, MO) was used to silence endogenous BTK isoform expression such that each line predominantly expresses the wild-type or mutant version of the intended isoform. BTK acylation: HEK293 cells plated on 6 wells plates were transfected using X-tremeGENE HP transfection reagent (Sigma-Aldrich, Saint Louis, MO) with 1 μg of BTK-C, BTK-A, or BTK-C C13A, C16A with 2 μg of zDHHC5 plasmid. 24 hours after transfection, cells were incubated with 100 μM of palmitic acid alkyne (in DMEM with 1 mg/ml defatted BSA) for 4 h at 37° C. Cells were washed twice in PBS, then lysed on ice in 50 mM Tris HCl, pH 7.4 with 150 mM NaCl, 1 mM EDTA, 1% TRITON X-100 and protein inhibitors. […]

BTK-A [2] = molecular target: T2, BTK-A (Homo sapiens, UniProt Q06187); experiment: Acyl incorporation assay (click chemistry after Flag immunoprecipitation), BTK-A; assay type: cell-based; details: HEK293 cells co-expressing zDHHC5, 100 μM analogue for 4 h
T2 construct: cells expressing Flag-tagged, full-length versions of BTK-A and BTK-C; expressed in transfected cells; host or cells: HEK293
Method: as §1
Reporter construction and viral transgenesis: GFP fusion constructs were generated using a BTK pleckstrin homology domain fusion protein vector, PH-Btk-GFP (Addgene Plasmid #51463). BTK constructs (BTK-A R28C; BTK-C; BTK-C R28C; BTK-C C13A, C16A; BTK-C C13A,C16A,R28C) were generated in this plasmid using QuikChange site directed mutagenesis. The exon 1C sequence (FIG. 1B) was subcloned from the original cDNA isolate. […]

breast cells = experiment: Toxicity of PI3K inhibition in breast cells; assay type: cell-based; details: breast cells (not shown)
From the text: Regulation of BTK-C localization and activity by PIP3 levels: Activation of BTK-A in B cells has been extensively studied. Adsorption of BTK-A to the B cell plasma membrane is driven by binding to PIP3 which opens the BTK monomer conformation allowing dimerization, auto-activation (Y223 phosphorylation) and transactivation (Y551 phosphorylation). […] Mutation of the analogous arginine in BTK-C(R62 in BTK-C) causes it to fail to localize to the membrane (FIG. 3S). […] For example, MDA-MB-231 cells which are PTEN^+ display less plasma membrane staining when compared to SUM149 cells which are PTEN. […] This PIP3-dependent activation may occur through BTK-C dimer formation through juxtaposed membrane-bound PH domains as occurs with the BTK-A. Using an assay developed by Chung et al., co-transfecting BTK-C with the BTK-C-GFP construct which contains the PH domain but is missing the kinase domain reduces Y551 phosphorylation compared with vector or BTK-C only (FIG. 4D).

[3] = tested on: LNCaP C42b prostate cancer cell line; experiment: Toxicity of PI3K inhibition in LNCaP C42b cells; assay type: cell-based; details: PTEN- LNCaP C42b prostate cancer cell line, compared with breast cells
BTK-A and BTK-C = experiment: Activating phosphorylation of BTK isoforms after stimulation with other ligands; assay type: cell-based, human; details: ligand stimulation (not shown)
BTK-C [4] = experiment: Activating tyrosine phosphorylation of BTK-C after insulin stimulation (immunoblot densitometry); assay type: cell-based, human; details: transfected HEK293 cells
Method: (§2) FIG. 5A-D present activating tyrosine phosphorylation of the BTK isoforms. BTK-A, BTK-C and BTK-C C13, C16 mutant constructs were transfected into HEK293 cell and after 24 hours stimulated with insulin. Values represent fold tyrosine-phosphorylated signal normalized to total BTK-A or BTK-C(anti-Flag) determined by densitometry; FIG. 5B presents phosphorylation of the BTK target tyrosine 759 of PLCγ2 in transfected HEK293 cells; FIG. 5C presents BTK-C expression increases proliferation rate of MDA-MB-231 (PTEN+) but not SUM149 (PTEN−) cells. Cells were seeded in 96 well plates and fixed with 4% formaldehyde and counted at 72 hours. Data were normalized to control and are presented as mean+SD. *p<0.05 using Student's ttest, n=3; and FIG. 5D presents BTK-C increases glucose uptake in MDA-MB-231 (PTEN+) but not SUM149 (PTEN−) cells. Cells were seeded and treated with 100 μM 2-NBDG for 15 min. Fluorescence images were acquired with an InCell 2200 and overall fluorescence intensity quantified. […]
(§3) Embodiment disclosed herein included the following materials and methods: Cell lines MD-AMB-231, BT549, SUM149, SKBr3 and ϕNX-AMPHO were obtained from the American Type Culture Collection (ATCC). […] In growth and uptake experiments, differences between control and treatment conditions were evaluated using Student's t test for pairwise comparisons. […]

BTK-A [5] = experiment: Activating tyrosine phosphorylation of BTK-A after insulin stimulation (immunoblot densitometry); assay type: cell-based, human; details: transfected HEK293 cells
Method: as §2, §3

[6] = insulin stimulation under reduced serum conditions

T1 sequence (Q06187 1-693 isoform Q06187-2 M35A): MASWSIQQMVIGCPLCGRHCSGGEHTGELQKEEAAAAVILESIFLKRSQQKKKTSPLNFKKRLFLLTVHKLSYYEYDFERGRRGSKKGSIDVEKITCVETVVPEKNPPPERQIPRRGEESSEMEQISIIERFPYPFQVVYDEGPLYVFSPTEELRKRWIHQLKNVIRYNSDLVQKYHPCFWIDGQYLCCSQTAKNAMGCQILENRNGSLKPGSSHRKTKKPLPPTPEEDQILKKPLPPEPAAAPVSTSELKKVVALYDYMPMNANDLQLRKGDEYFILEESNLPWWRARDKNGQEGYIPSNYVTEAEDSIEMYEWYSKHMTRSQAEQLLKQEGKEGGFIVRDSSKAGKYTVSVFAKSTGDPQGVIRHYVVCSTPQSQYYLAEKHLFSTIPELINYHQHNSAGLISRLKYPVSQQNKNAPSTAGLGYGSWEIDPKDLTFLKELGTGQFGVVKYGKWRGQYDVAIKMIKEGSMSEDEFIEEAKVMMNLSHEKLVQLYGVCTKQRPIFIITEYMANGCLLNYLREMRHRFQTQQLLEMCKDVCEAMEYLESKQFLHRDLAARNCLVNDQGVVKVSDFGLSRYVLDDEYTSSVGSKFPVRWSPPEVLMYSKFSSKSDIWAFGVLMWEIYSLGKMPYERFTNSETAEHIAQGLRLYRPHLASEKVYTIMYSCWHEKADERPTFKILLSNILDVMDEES
T2 sequence (Q06187 whole entry): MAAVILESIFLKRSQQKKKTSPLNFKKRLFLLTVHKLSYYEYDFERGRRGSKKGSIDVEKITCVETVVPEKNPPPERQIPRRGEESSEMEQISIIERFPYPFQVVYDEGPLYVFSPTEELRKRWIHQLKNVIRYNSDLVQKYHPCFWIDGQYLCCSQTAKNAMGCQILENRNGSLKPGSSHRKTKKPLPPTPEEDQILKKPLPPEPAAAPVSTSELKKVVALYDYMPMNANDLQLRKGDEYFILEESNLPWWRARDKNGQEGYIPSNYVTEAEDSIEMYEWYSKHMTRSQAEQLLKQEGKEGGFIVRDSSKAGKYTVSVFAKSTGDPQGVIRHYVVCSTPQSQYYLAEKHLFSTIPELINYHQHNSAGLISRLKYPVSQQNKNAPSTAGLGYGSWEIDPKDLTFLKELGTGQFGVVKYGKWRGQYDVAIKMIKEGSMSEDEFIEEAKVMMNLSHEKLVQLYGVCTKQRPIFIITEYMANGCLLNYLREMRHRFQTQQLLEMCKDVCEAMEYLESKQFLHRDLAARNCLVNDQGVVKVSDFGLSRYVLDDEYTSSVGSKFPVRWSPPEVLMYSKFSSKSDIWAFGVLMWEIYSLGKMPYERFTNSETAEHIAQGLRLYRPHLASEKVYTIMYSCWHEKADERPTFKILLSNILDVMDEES

## C#CCCCCCCCCCCCCCCCC(=O)O [17-ODYA, 17-octadecynoic acid]
BTK-C [1]
  incorporation of acyl analogue label into BTK-C: label is increased
BTK-A [2]
  incorporation of acyl analogue label into BTK-A: not

## C[C@H](Nc1ncnc2[nH]cnc12)c1cc2cccc(Cl)c2c(=O)n1-c1ccccc1 [IPI-145, Duvelisib]
Breast cells
  toxicity: significant toxicity
[3]
  toxicity: less toxicity

## CCCCC/C=C\C/C=C\C/C=C\C/C=C\CCCC(=O)O [arachidonic acid]
BTK-C [1]
  incorporation of acyl analogue label into BTK-C: failed to observe incorporation

## CCCCCCCC/C=C\CCCCCCCC(=O)O [oleic acid]
BTK-C [1]
  incorporation of acyl analogue label into BTK-C: failed to observe incorporation

## CCCCCC/C=C\CCCCCCCC(=O)O [palmitoleic acid]
BTK-C [1]
  incorporation of acyl analogue label into BTK-C: failed to observe incorporation

## EGF: ligand used for stimulation of BTK activation (NSDSECPLSHDGYCLHDGVCMYIEALDKYACNCVVGYIGERCQYRDLKWWELR; UniProt P01133 971-1023, looked up)
BTK-A and BTK-C
  increase of activating phosphorylation levels above unstimulated levels: only modestly

## Insulin: common activator of PI3K in cancer cells
BTK-C [4]; insulin stimulation (FIG. 5A)
  transactivation (phosphorylation of BTK by its dimerized partner) of BTK-C: largely unchanged
BTK-C [4]; [6]
  increase of Y551 phosphorylation of BTK-C: ~24%
BTK-A [5]; insulin stimulation (FIG. 5A)
  transactivation (phosphorylation of BTK by its dimerized partner) of BTK-A: largely unchanged
BTK-A [5]; [6]
  increase of Y551 phosphorylation of BTK-A: two-fold
